Results published in patent US6461997B1, “Triazole sulfones having herbicidal activity” (Monsanto Technology LLC, priority 1999, dated 2002).

What was measured:
[1] = system: IPOSS (annual morningglory); assay: Pre-plant incorporated (PPI) herbicidal activity, warm season; format: in vivo, Ipomoea spp.; details: PPI application
Protocol: (§1) In another set of tests, the pre-plant incorporated (PPI) activity of compounds of this invention was evaluated on the same species as for the pre-emergence tests described above. In the PPI tests the following procedure, designed to simulate PPI application, was used.
(§2) A pre-prepared topsoil mixture (described above) was placed in a pot and compacted to a depth of 1.0 to 1.25 cm from the top of the pot. Seeds of each of several monocotyledonous and dicotyledonous annual plant species were placed on top of the soil. A sufficient quantity of soil to cover the seeds and level fill the pot was weighed into an open container. A known amount of the test compound was dissolved or suspended in an organic solvent and applied by spraying to this cover soil. The cover soil was thoroughly mixed to distribute the test compound throughout the cover soil, and was then applied as a cover layer over the seeds. Untreated soil was used as a cover layer for control pots. After treatment the plants were placed in a greenhouse where they received 0.64 cm of overhead irrigation. All subsequent watering consisted of a light overhead mist and/or subirrigation as needed for germination and growth. Tables 9 and 10 below relate to warm season plant species which were placed after pre-emergence treatment in a greenhouse with a 30/21° C. day/night temperature regime. Tables 11 and 12 below relates to cool season plant species placed after pre-emergence treatment in a greenhouse or growth chamber with an 18/13° C. day/night temperature regime. Only the compounds of Examples 1, 6, 8, 11, 13 and 15-20 were included in PPI tests.
(§3) Approximately 14 days after planting and treating, the plants were observed and herbicidal efficacy recorded as percent inhibition by comparison with untreated plants.

AVEFA (wild oat) = assay: Pre-emergence herbicidal activity, cool season; format: in vivo, Avena fatua; details: GR80 = lowest tested rate (300, 100, 30, 10 g/ha) with 80% or greater inhibition; approx. 14 days after treating; 18/13° C.
In short: (§4)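 Seeds sown in sterilised fertilised topsoil received surface-applied compound in 50:50 acetone/water, typically at 300, 100, 30 and 10 g/ha, then greenhouse-grown at 30/21° C (warm-season species) or 18/13° C (cool-season species). Percent inhibition versus untreated plants was scored at about 14 days, giving GR80; an asterisk marks activity short of 80% at the top rate.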

[2] = system: AGRRE (quackgrass (seedling)); assay: Pre-emergence herbicidal activity, cool season; format: in vivo, Elymus repens; details: GR80 = lowest tested rate (300, 100, 30, 10 g/ha) with 80% or greater inhibition; approx. 14 days after treating; 18/13° C.
In short: as §4

KCHSC (kochia) [3] = assay: Pre-plant incorporated (PPI) herbicidal activity, cool season; format: in vivo, Kochia scoparia; details: for PPI activity GR80, KCHSC: pre-plant incorporated, lowest tested rate with 80% or greater inhibition, about 14 days; for Percent inhibition KCHSC: weed, PPI application
Protocol: as §1, §2, §3

BROTE (downy brome) [4] = assay: Pre-emergence herbicidal activity, cool season; format: in vivo, Bromus tectorum; details: GR80 = lowest tested rate (300, 100, 30, 10 g/ha) with 80% or greater inhibition; approx. 14 days after treating; 18/13° C.
In short: as §4

[5] = system: CIRAR (canada thistle (seedling)); assay: Pre-plant incorporated (PPI) herbicidal activity, warm season; format: in vivo, Cirsium arvense; details: GR80 = lowest tested rate with 80% or greater inhibition, approx. 14 days after treating, 30/21° C.
Protocol: as §1, §2, §3

BROTE (downy brome) [6] = assay: Post-emergence herbicidal activity, cool season; format: in vivo, Bromus tectorum; details: abraded plants sprayed at 300, 100, 30 and 10 g/ha; about 14 days after treatment
In short: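 Greenhouse-grown seedlings were abraded 9–14 days after planting, then sprayed at 300, 100, 30 and 10 g/ha in acetone:water (3,100 l/ha). Grown at 18/13 °C day/night, percent inhibition versus abraded unsprayed controls was scored about 14 days after treatment and GR80 assigned.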

[7] = system: CIRAR (canada thistle (seedling)); assay: Pre-emergence herbicidal activity, warm season; format: in vivo, Cirsium arvense; details: GR80 = lowest tested rate (300, 100, 30, 10 g/ha) with 80% or greater inhibition; approx. 14 days after treating; 30/21° C.
In short: as §4

LOLMG (annual ryegrass) = assay: Pre-emergence herbicidal activity, cool season; format: in vivo, Lolium multiflorum; details: GR80 = lowest tested rate (300, 100, 30, 10 g/ha) with 80% or greater inhibition; approx. 14 days after treating; 18/13° C.
In short: as §4

KCHSC (kochia) [8] = assay: Pre-emergence herbicidal activity, cool season; format: in vivo, Kochia scoparia; details: lowest tested rate with 80% or greater inhibition; rates 300, 100, 30, 10 g/ha; about 14 days
In short: as §4

[9] = Ipomoea, 300 g/ha, read-out: Percent inhibition IPOSS
[10] = Ipomoea, 900 g/ha, read-out: Percent inhibition IPOSS

Compound `CCN(CC)C(=O)n1cnc(S(=O)(=O)C(F)(F)Br)n1` [Example 1, 3-(bromodifluoromethylsulfonyl)-1-(N,N-diethylcarbamoyl)-1,2,4-triazole] has an inhibition at 10 g/ha ([1]; Ipomoea, 10 g/ha, read-out: Percent inhibition IPOSS) of 0%, an inhibition at 300 g/ha [1, 9] of 60% and an inhibition at 900 g/ha [1, 10] of 80%. For the same compound, the “Pre-emergence activity (GR80) AVEFA” value (AVEFA (wild oat)) was 100 g/ha, the “Pre-emergence activity (GR80) AGRRE” value [2] was 300 g/ha and the “PPI activity GR80, KCHSC” value (KCHSC (kochia) [3]) was 100 g/ha. For the same compound, the “Pre-emergence activity (GR80) BROTE” value (BROTE (downy brome) [4]) was 300 g/ha, the “PPI activity (GR80) CIRAR” value [5] was 100 g/ha and the “Post-emergence activity GR80, BROTE” value (BROTE (downy brome) [6]) was “[empty]”. For the same compound, the “Pre-emergence activity (GR80) CIRAR” value [7] was 100 g/ha, the “Pre-emergence activity (GR80) LOLMG” value (LOLMG (annual ryegrass)) was 100 g/ha and the “Pre-emergence activity GR80, KCHSC” value (KCHSC (kochia) [8]) was 300 g/ha.

With `CCN(CC)C(=O)n1cnc(S(=O)(=O)C(F)(F)F)n1` [Example 2] the “Percent inhibition IPOSS” value ([1]; 100 g/ha) was 20%, the “Percent inhibition IPOSS” value ([1]; 300 g/ha) was 100% and the “Percent inhibition IPOSS” value ([1]; 900 g/ha) was 95%. For the same compound, the “Pre-emergence activity (GR80) AGRRE” value [2] was 100 g/ha, the “Pre-emergence activity (GR80) BROTE” value (BROTE (downy brome) [4]) was 300 g/ha and the “Pre-emergence activity (GR80) CIRAR” value [7] was 300 g/ha. For the same compound, the “Pre-emergence activity (GR80) LOLMG” value (LOLMG (annual ryegrass)) was 300 g/ha and the “Pre-emergence activity GR80, KCHSC” value (KCHSC (kochia) [8]) was 300 g/ha.

With `CCSC(F)(F)S(=O)(=O)c1ncn(C(=O)N(CC)CC)n1` [Example 8, 1-(N,N-diethylcarbamoyl)-3-[difluoro(ethylthio)methylsulfonyl]-1,2,4-triazole] the inhibition at 30 g/ha ([1]; Ipomoea, 30 g/ha, read-out: Percent inhibition IPOSS) was 0%, the inhibition at 100 g/ha ([1]; Ipomoea, 100 g/ha, read-out: Percent inhibition IPOSS) was 70% and the inhibition at 300 g/ha [1, 9] was 90%. The inhibition at 900 g/ha [1, 10] was 100%, the “Pre-emergence activity (GR80) AVEFA” value (AVEFA (wild oat)) was 300 g/ha and the “PPI activity GR80, KCHSC” value (KCHSC (kochia) [3]) was 100 g/ha. The “Pre-emergence activity (GR80) BROTE” value (BROTE (downy brome) [4]) was “* (activity observed, at least at highest rate, but <80% inhibition)”, the “PPI activity (GR80) CIRAR” value [5] was 100 g/ha and the “Post-emergence activity GR80, BROTE” value (BROTE (downy brome) [6]) was “[empty]”. The “Pre-emergence activity (GR80) CIRAR” value [7] was 300 g/ha and the “Pre-emergence activity GR80, KCHSC” value (KCHSC (kochia) [8]) was “[empty]”.

For `C=C(CC(F)(F)S(=O)(=O)c1ncn(C(=O)N(CC)CC)n1)C[Si](C)(C)C` [Example 20], the “PPI activity GR80, KCHSC” value (KCHSC (kochia) [3]) was “[empty]”, the “Percent inhibition KCHSC” value (KCHSC (kochia) [3]; 10 g/ha) was 50% and the “Percent inhibition KCHSC” value (KCHSC (kochia) [3]; 30 g/ha) was 50%. The “Percent inhibition KCHSC” value (KCHSC (kochia) [3]; 100 g/ha) was 100%, the “Percent inhibition KCHSC” value (KCHSC (kochia) [3]; 300 g/ha) was 100% and the “Percent inhibition KCHSC” value (KCHSC (kochia) [3]; 900 g/ha) was 100%. For the same compound, the “PPI activity (GR80) CIRAR” value [5] was 100 g/ha, the “Post-emergence activity GR80, BROTE” value (BROTE (downy brome) [6]) was “[empty]” and the “Pre-emergence activity (GR80) CIRAR” value [7] was 100 g/ha. For the same compound, the “Pre-emergence activity GR80, KCHSC” value (KCHSC (kochia) [8]) was “[empty]”.

For `CCN(CC)C(=O)n1cnc(S(=O)(=O)C(F)(F)C(F)(F)Br)n1` [Example 4], the “Percent inhibition IPOSS” value ([1]; 30 g/ha) was 0%, the “Percent inhibition IPOSS” value ([1]; 100 g/ha) was 80% and the “Percent inhibition IPOSS” value ([1]; 300 g/ha) was 60%. The “Percent inhibition IPOSS” value ([1]; 900 g/ha) was 100%, the “Pre-emergence activity (GR80) AVEFA” value (AVEFA (wild oat)) was 30 g/ha and the “Pre-emergence activity (GR80) AGRRE” value [2] was 30 g/ha. For the same compound, the “Pre-emergence activity (GR80) BROTE” value (BROTE (downy brome) [4]) was 300 g/ha, the “Pre-emergence activity (GR80) CIRAR” value [7] was 30 g/ha and the “Pre-emergence activity (GR80) LOLMG” value (LOLMG (annual ryegrass)) was 300 g/ha. The “Pre-emergence activity GR80, KCHSC” value (KCHSC (kochia) [8]) was 100 g/ha.

For `CCN(CC)C(=O)n1cnc(S(=O)(=O)C(F)(F)C(=O)c2ccccc2)n1` [Example 6], the “Pre-emergence activity (GR80) AVEFA” value (AVEFA (wild oat)) was 300 g/ha, the “Pre-emergence activity (GR80) AGRRE” value [2] was 300 g/ha and the “PPI activity GR80, KCHSC” value (KCHSC (kochia) [3]) was 300 g/ha. For the same compound, the “PPI activity (GR80) CIRAR” value [5] was 100 g/ha, the “Pre-emergence activity (GR80) CIRAR” value [7] was 300 g/ha and the “Pre-emergence activity (GR80) LOLMG” value (LOLMG (annual ryegrass)) was 300 g/ha. For the same compound, the “Pre-emergence activity GR80, KCHSC” value (KCHSC (kochia) [8]) was 300 g/ha.

For `CCN(CC)C(=O)n1cnc(S(=O)(=O)C(F)(F)SC)n1` [Example 9], the “Percent inhibition IPOSS” value ([1]; 30 g/ha) was 0%, the “Percent inhibition IPOSS” value ([1]; 100 g/ha) was 100% and the “Percent inhibition IPOSS” value ([1]; 300 g/ha) was 40%. For the same compound, the “Percent inhibition IPOSS” value ([1]; 900 g/ha) was 100%, the “Pre-emergence activity (GR80) AVEFA” value (AVEFA (wild oat)) was 300 g/ha and the “Pre-emergence activity (GR80) BROTE” value (BROTE (downy brome) [4]) was 100 g/ha. For the same compound, the “Post-emergence activity GR80, BROTE” value (BROTE (downy brome) [6]) was “[empty]”, the “Pre-emergence activity (GR80) CIRAR” value [7] was 100 g/ha and the “Pre-emergence activity (GR80) LOLMG” value (LOLMG (annual ryegrass)) was “* (activity observed, at least at highest rate, but <80% inhibition)”. For the same compound, the “Pre-emergence activity GR80, KCHSC” value (KCHSC (kochia) [8]) was 300 g/ha.
